Experimental data as given in patent US4031218A, “7-(2,3-Dihydroxypropyl-1,3-di-n-propylxanthine and a pharmaceutical composition containing same useful as a bronchial muscle relaxant” (Mallinckrodt, Inc., priority 1976, dated 1977).
In brackets after ≈: the same amount, converted by molar mass. Entries after “also recorded” stand apart in the source; their conditions may differ.

Columns and labels:
[1] = system: dogs; assay: Intravenous cardiovascular evaluation in dogs; conditions: for CF (coronary flow) change / CO (cardiac output) change / CW (cardiac work) change / HR (heart rate) change / MAP (mean arterial pressure) change / MCF (myocardial contractile force) change / TPR (total peripheral resistance) change / Cardiovascular effects (Mean): i.v. dogs, estimated at HBD; for I.V. Cardiovascular (Dogs), mean relative molar activity: mean for arterial pressure, heart rate, contractile force, cardiac output, stroke volume, cardiac work, TPR, coronary flow and resistance, relative to theophylline; for Cardiovascular effects (Mean): mean of the cardiovascular changes
Method: Intravenous Cardiovascular Evaluation in Dogs
Thirteen adult mongrel dogs of either sex ranging in weight from 16.7 to 25.0 kg were employed to compare the overall intravenous cardiovascular activity of the five experimental compounds.
Dogs were anesthetized with pentobarbital sodium, 30-35 mg/kg i.v., fitted with a cuffed endotracheal tube, and ventilated with a Harvard Animal Respiratory Pump. A femoral vein was cannulated for i.v. drug administration. The left common carotid artery was cannulated and the cannula tip advanced into the aortic arch. A median sternotomy was performed and appropriately sized electromagnetic blood flow transducers (Biotronex) were placed around the ascending aorta and left anterior descending coronary artery. These procedures allowed continuous recording or calculation of the following parameters:
a. Mean Arterial Pressure (MAP); from the aortic cannula.
b. Heart Rate (HR); electronically from pulsatile ascending aortic flow.
c. Cardiac Output (CO); mean ascending aortic flow.
d. Myocardial Contractile Force (MCF); dQ/dt, the first derivative of maximum aortic flow rate, also known as peak aortic flow acceleration.
e. Stroke Volume (SV); quotient of CO/HR.
f. Cardiac Work (CW); product of CO X MAP.
g. Total Peripheral Resistance (TPR); quotient of MAP/CO.
h. Coronary Flow (CF); mean left anterior descending (LAD) coronary flow.
i. Coronary Resistance (CR); quotient of MAP/CF.
Logarithmically increasing doses of the appropriate compound were injected at 20-minute intervals. Responses were measured at 1, 2, 5, 10, 15 and 20 minutes after each dose and the average response during that period was calculated. Theophylline (aminophylline), dyphylline (II), and Compound V were employed in both 20 and 80 mg/ml concentrations in distilled water. Compounds III and IV were used in 10 and 30 mg/ml concentrations respectively.

[2] = Intravenous emetic study in dogs (ED50); assay type: in vivo, dog; conditions: dog, in vivo, iv; read-out: ED50 (median emetic dose), I.V. Dogs
Method: (§1) Twelve adult mongrel dogs of either sex were employed to determine the median emetic dose (ED50) of all five experimental compounds after intravenous administration. […] Onset, frequency, and duration of emetic episodes were also recorded. The dogs were not fasted, were allowed at least 2 days rest between doses, and no animal received the same compound twice in succession. […] ED50 values were calculated according to the method of Litchfield and Wilcoxon (1949).

[3] = system: dogs; assay: Intravenous emetic study in dogs (ED50); assay type: in vivo, dog; conditions: for Emetic effect, I.V. Dogs: estimated at HBD; for I.V. Emetic (Dogs), relative molar activity: relative to theophylline, molar basis
Method: as §1

[4] = system: dogs; assay: Oral minimum emetic dose in dogs; assay type: in vivo, dog; conditions: for Emetic effect, P.O. Dogs: estimated at HBD; for Oral Emetic (Dogs), relative molar activity: relative to theophylline, molar basis
Method: 2. Oral Minimum Emetic Dose
The minimum dose of each compound which causes emesis after oral administration was estimated in a group of five adult mongrel dogs of either sex. Logarithmically increasing or decreasing (depending upon response) doses of each compound were administered orally via a flexible stomach tube. The compounds were dissolved in distilled water in concentrations to allow a constant volume dose of 5 ml/kg. […] Onset, frequency, and duration of emetic episodes as well as signs of CNS stimulation were also recorded.

[5] = system: rats; assay: Acute oral diuretic evaluation in rats; assay type: in vivo, Sprague Dawley rats; conditions: relative to theophylline, molar basis
Method: 1. Acute Oral Evaluation in Rats
The oral diuretic effect of each compound was estimated in rats by a modification of the method described by Lipschitz et al. (J. Pharmacol. Exp. Ther. 79:97, 1943). Male Sprague Dawley rats (Carworth) weighing between 153 and 220 gms were fasted overnight. Groups of five animals each were administered three appropriate logarithmically spaced doses of each compound dissolved in saline in a constant volume dose of 25 ml/kg via an oral feeding needle. Controls received the same dose of only saline. The rats were then placed in individual metabolism cages and deprived of food and water for the remainder of the experiment. At the end of six hours, each rat was forced to expel urine in the bladder by pulling on the base of the tail. Parameters measured included urine volume, pH, and sodium and potassium excretion as measured by atomic absorption analysis. Six hour values were averaged for each dose of compound and for controls and were compared accordingly.

[6] = system: histamine-induced bronchospasm; assay: Protection against histamine aerosol in guinea pigs (in vivo bronchodilator); parameters: species or system guinea pig; conditions: relative to theophylline, molar basis; for Bronchodilator activity, In-Vivo I.P. (G. Pig), relative molar activity: 15-20 min after injection; for Bronchodilator activity, In-Vivo, Oral (G. Pig), relative molar activity: 35-40 min after gavage
Method: With the exception of theophylline, all compounds were administered as the free base dissolved or suspended in appropriate aqueous vehicles. […] Final comparisons were always based on the calculated dose of theophylline. Because of obvious differences in molecular weights, all compounds were compared on a molar basis rather than on absolute weight.
2. Protection Against Histamine Aerosol
Adult Camm English Short Hair male albino guinea pigs (270-600 gm.) were singularly confined in an inverted glass aquarium and continuously exposed to a finely atomized mist of 0.5% histamine diphosphate produced by a Devilbiss No. 40 nebulizer and compressed air at 300 mm. Hg. pressure. The period from the start of aerosolization until the appearance of ultimate collapse or convulsions is defined as the preconvulsive time and is relatively constant in the same animal. Preconvulsive times were determined for each dose of each compound in at least six guinea pigs. Control preconvulsive times were obtained three days prior to and three days following drug administration. Percent protection afforded by each compound was calculated by the formula:
% Protection = (1- C/T) × 100
where C is the average control preconvulsive time and T is the test preconvulsive time after compound administration, both in seconds.
The PD50 of each experimental compound was determined after both intraperitoneal and oral administration. A minimum of 3 dose levels and 6 animals per dose were employed to obtain meaningful dose-response data. Protection was assessed 15-20 minutes after intraperitoneal injection and 35-40 minutes after oral gavage with a flexible plastic tube. Animals were fasted overnight prior to oral dosing. All compounds were administered in aqueous solution in concentrations commensurate to a proper volume dose. Guinea pigs were utilized between 1 and 3 times but no animal received the same compound twice in succession with a minimum of 3 days rest between doses.

[7] = Solubility; conditions: for Solubility in words: water solubility, qualitative
[8] = Acute toxicity and side effects; conditions: compared with theophylline
[9] = U.S. Pat. No. 2,756,229, in comparison with theophylline; cited from earlier work
[10] = prior art statement; cited from earlier work
[11] = prior art statement; listed as dyphylline; cited from earlier work

Compound	CF (coronary flow) change [1]	CO (cardiac output) change [1]	CW (cardiac work) change [1]	HR (heart rate) change [1]	MAP (mean arterial pressure) change [1]	MCF (myocardial contractile force) change [1]	TPR (total peripheral resistance) change [1]	I.V. Cardiovascular (Dogs), mean relative molar activity [1]	Cardiovascular effects (Mean) [1]	ED50 [2]	Emetic effect, I.V. Dogs [3]	I.V. Emetic (Dogs), relative molar activity [3]	MED (minimum emetic dose), P.O. Dogs [4]	Emetic effect, P.O. Dogs [4]	Oral Emetic (Dogs), relative molar activity [4]	Oral Diuretic (Rats), relative molar activity [5]	Bronchodilator activity, In-Vivo I.P. (G. Pig), relative molar activity [6]	Bronchodilator activity, In-Vivo, Oral (G. Pig), relative molar activity [6]	solubility ([7]; water)	Solubility in words [7]	also measured
CCCn1c(=O)c2c(ncn2CC(O)CO)n(CCC)c1=O (stereo not drawn) [Compound V, 7-(2,3-dihydroxypropyl)-1,3-di-n-propylxanthine]	+17 %Δ	+6 %Δ	+2 %Δ	+7 ΔBPM	-5 ΔmmHg	+15 %Δ	-9 %Δ	0.91	9	53 mg/kg	None	1.91	442 mg/kg	None	0.50	1.05	1.56	0.75	100 mg/mL (≈ 322 mM)	considerably more water soluble than theophylline	solubility ([7]; chloroform, organic solvent or mixture): ~310 mg/mL (≈ 999 mM); Acute toxicity, emetic, cardiovascular, CNS and diuretic effects in words [8]: less active in regard to acute toxicity as well as undesirable cardiovascular, CNS, diuretic and oral emetic effects
CCCn1c(=O)c2c(ncn2CC(C)O)n(CCC)c1=O (stereo not drawn) [III, 7-(2-hydroxypropyl) 1,3-di-n-propylxanthine]	+8 %Δ	+10 %Δ	+2 %Δ	+21 ΔBPM	-8 ΔmmHg	+28 %Δ	-15 %Δ	1.16	13	0.7 mg/kg	Severe	134.17	0.8 mg/kg	Severe	251.00	7.29	3.26	3.30	10 mg/mL (≈ 34 mM)	low solubilities	Diuretic activity in words (prior art) [9]: strong diuretics; Acute toxicity, emetic, cardiovascular, CNS and diuretic effects in words [8]: increased undesirable emetic, cardiovascular and central nervous system (CNS) effects
CCCn1c(=O)c2c(ncn2CCCO)n(CCC)c1=O [IV, 7-(3-hydroxypropyl)-1,3-di-n-propylxanthine]	+4 %Δ	+2 %Δ	-26 %Δ	+80 ΔBPM	-25 ΔmmHg	+20 %Δ	-5 %Δ	2.02	23	7.5 mg/kg	Moderate	12.88	33 mg/kg	None	6.00	1.48	0.94	0.92	30 mg/mL (≈ 102 mM)	low solubilities	Diuretic activity in words (prior art) [9]: strong diuretics; Acute toxicity, emetic, cardiovascular, CNS and diuretic effects in words [8]: increased undesirable emetic, cardiovascular and central nervous system (CNS) effects
Cn1c(=O)c2c(ncn2CC(O)CO)n(C)c1=O (stereo not drawn) [Compound II, 7-(2,3-dihydroxypropyl) 1,3-dimethylxanthine]	+10 %Δ	-15 %Δ	-30 %Δ	+11 ΔBPM	-20 ΔmmHg	-5 %Δ	+3 %Δ	0.36	13	900 mg/kg	None	0.09	> 362 mg/kg	None	< 0.50	0.71	0.12	0.13	330 mg/mL (≈ 1300 mM)	–	Water solubility in words (prior art) [10]: high water solubility; Bronchodilator activity / potency in words (prior art) [11]: less bronchodilator potency than theophylline; also recorded: markedly decreases overall potency
